Experimental findings from ChEMBL document CHEMBL2073866, “Cellular pharmacokinetic aspects of reversal effect of itraconazole on P-glycoprotein-mediated resistance of anticancer drugs” (Biol Pharm Bull, 1999) are described below.

Data set [1] concerns the target T1, ATP-dependent translocase ABCB1 (Homo sapiens, UniProt P08183). Kind of data set: TP_TRANSPORTER: inhibition of Azidopine photoaffinity labelling (Azidopine: 0.4 uM, Daunorubicin: 400 uM) in membranes from MDR1-expressing LLC-PK1 cells. The class given is functional, cell membranes, Membrane. As to conditions: pig, llc-pk1, 400 µM.
In data set [2] the target is T1, ATP-dependent translocase ABCB1. Kind of data set: TP_TRANSPORTER: transepithelial transport (basal to apical) in MDR1-expressing LLC-PK1 cells. It is filed as functional, cell-based. Particulars: pig.
For data set [3] the target is unchanged. Kind of data set: TP_TRANSPORTER: inhibition of Azidopine photoaffinity labelling (Azidopine: 0.4 uM, Doxorubicin: 400 uM) in membranes from MDR1-expressing LLC-PK1 cells. As to conditions: pig, llc-pk1, 400 µM. The class given is functional, cell membranes, Membrane.
Data set [4] shares this target. The data set is described as follows: TP_TRANSPORTER: inhibition of Digoxin transepithelial transport (basal to apical) (Digoxin: 0.1 uM, Itraconazole: 100 uM) in MDR1-expressing LLC-PK1 cells. The class given is functional, cell-based. Particulars: pig, llc-pk1, 100 µM.
Data set [5] has the same target. Kind of data set: TP_TRANSPORTER: inhibition of Azidopine photoaffinity labelling in membranes from MDR1-expressing LLC-PK1 cells. It is filed as functional, cell membranes, Membrane. As to conditions: pig.
The target is the same in data set [6]. The data set is described as follows: TP_TRANSPORTER: inhibition of Doxorubicin transepithelial transport (basal to apical) (Doxorubicin: 0.1 uM, Itraconazole: 100 uM) in MDR1-expressing LLC-PK1 cells. It is filed as functional, cell-based. As to conditions: pig, llc-pk1, 100 µM.
The target is the same in data set [7]. The data set is described as follows: TP_TRANSPORTER: inhibition of Vinblastine transepithelial transport (basal to apical) (Vinblastine: 0.1 uM, Itraconazole: 100 uM) in MDR1-expressing LLC-PK1 cells. As to conditions: pig, llc-pk1, 100 µM. It is filed as functional, cell-based.
Data set [8] has the same target. The data set is described as follows: TP_TRANSPORTER: inhibition of Azidopine photoaffinity labelling (Azidopine: 0.4 uM, Vinblastine: 400 uM) in membranes from MDR1-expressing LLC-PK1 cells. Particulars: pig, llc-pk1, 400 µM. It is filed as functional, cell membranes, Membrane.

Molecules are shown by their SMILES.

T1 sequence (P08183 whole entry): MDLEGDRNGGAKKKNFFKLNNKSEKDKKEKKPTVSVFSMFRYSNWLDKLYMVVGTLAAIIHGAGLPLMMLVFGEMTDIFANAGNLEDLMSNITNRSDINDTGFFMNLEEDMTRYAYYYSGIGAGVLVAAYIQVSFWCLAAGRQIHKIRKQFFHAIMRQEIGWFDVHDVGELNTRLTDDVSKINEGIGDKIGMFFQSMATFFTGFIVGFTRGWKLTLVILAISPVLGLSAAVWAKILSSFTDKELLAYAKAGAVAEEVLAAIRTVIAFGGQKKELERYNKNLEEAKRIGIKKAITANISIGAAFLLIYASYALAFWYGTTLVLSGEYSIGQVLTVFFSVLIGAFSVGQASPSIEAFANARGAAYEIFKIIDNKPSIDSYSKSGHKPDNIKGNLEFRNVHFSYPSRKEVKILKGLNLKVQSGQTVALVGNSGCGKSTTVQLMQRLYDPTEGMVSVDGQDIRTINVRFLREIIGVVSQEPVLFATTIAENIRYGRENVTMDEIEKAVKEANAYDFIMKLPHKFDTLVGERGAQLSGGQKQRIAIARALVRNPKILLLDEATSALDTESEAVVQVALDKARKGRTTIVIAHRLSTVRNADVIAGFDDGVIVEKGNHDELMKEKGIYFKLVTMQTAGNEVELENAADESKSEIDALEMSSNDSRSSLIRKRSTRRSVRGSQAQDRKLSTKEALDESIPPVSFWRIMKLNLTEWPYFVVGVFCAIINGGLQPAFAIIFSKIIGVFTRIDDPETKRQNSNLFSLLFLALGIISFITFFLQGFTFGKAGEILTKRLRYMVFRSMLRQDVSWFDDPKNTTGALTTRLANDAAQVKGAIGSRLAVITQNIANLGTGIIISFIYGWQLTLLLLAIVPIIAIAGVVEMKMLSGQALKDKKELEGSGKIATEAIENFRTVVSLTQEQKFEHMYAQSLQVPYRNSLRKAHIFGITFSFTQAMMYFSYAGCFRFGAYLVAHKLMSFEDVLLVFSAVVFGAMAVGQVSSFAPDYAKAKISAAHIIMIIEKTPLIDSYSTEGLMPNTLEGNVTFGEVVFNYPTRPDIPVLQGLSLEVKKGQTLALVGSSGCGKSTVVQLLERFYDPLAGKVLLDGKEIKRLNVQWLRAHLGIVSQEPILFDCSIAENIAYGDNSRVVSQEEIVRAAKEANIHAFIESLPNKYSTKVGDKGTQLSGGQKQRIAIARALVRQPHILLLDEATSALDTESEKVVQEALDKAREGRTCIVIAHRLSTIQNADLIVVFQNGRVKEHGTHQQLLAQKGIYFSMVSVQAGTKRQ

On to `COc1cccc2c1C(=O)c1c(O)c3c(c(O)c1C2=O)C[C@@](O)(C(C)=O)C[C@@H]3O[C@H]1C[C@H](N)[C@H](O)[C@H](C)O1` [DAUNORUBICIN], for which the figures for the Activity entry in data set [1] and in data set [2] were “inhibitor [+]” and “substrate [+]”, respectively.

`COc1cccc2c1C(=O)c1c(O)c3c(c(O)c1C2=O)C[C@@](O)(C(=O)CO)C[C@@H]3O[C@H]1C[C@H](N)[C@H](O)[C@H](C)O1` [DOXORUBICIN]: the Activity entry in data set [3] was “inhibitor [+]”.

Turning to `CCC(C)n1ncn(-c2ccc(N3CCN(c4ccc(OCC5COC(Cn6cncn6)(c6ccc(Cl)cc6Cl)O5)cc4)CC3)cc2)c1=O` (stereo not drawn) [ITRACONAZOLE], the Activity result in data set [4], in data set [5], in data set [6] and in data set [7] was “inhibitor [+]” each time.

Regarding `CC[C@]1(O)C[C@@H]2CN(CCc3c([nH]c4ccccc34)[C@@](C(=O)OC)(c3cc4c(cc3OC)N(C)[C@H]3[C@@](O)(C(=O)OC)[C@H](OC(C)=O)[C@]5(CC)C=CCN6CC[C@]43[C@@H]65)C2)C1` [VINBLASTINE], the Activity result in data set [8] is “inhibitor [+]”.
